From patent publication US20110150961A1, “ANTI-INFECTIVE CATHETERS” (priority 2008, published 2011)
In brackets after ≈: the same amount, converted by molar mass. Several values for one entry are separate records, joined by “and”; a condition that tells them apart may be missing. Equal entries are not always repeated. Where two headings read alike, the source gives them in different places.

How the values were obtained:
[1] = system: S. aureus ATCC 25923; assay: MIC and MBC on ATCC control strains (Example 10); type: cell-based; details: Staphylococcus aureus
Description: (§1) The Gram-positive organisms tested were S. epidermidis ATCC 12228, S. aureus ATCC 25923, and E. faecalis ATCC 29212. The Gram-negative strains tested were P. aeruginosa ATCC 27853, K. pneumonia ATCC 700603 and E. coli ATCC 25922.

[2] = system: P. aeruginosa ATCC 27853; assay: MIC and MBC on ATCC control strains (Example 10); type: cell-based; details: Pseudomonas aeruginosa
Description: as §1

[3] = system: S. epidermidis ATCC 12228; assay: MIC and MBC on ATCC control strains (Example 10); type: cell-based; details: Staphylococcus epidermidis
Description: as §1

[4] = system: E. faecalis ATCC 29212; assay: MIC and MBC on ATCC control strains (Example 10); type: cell-based; details: Enterococcus faecalis
Description: as §1

[5] = system: K. pneumonia ATCC 700603; assay: MIC and MBC on ATCC control strains (Example 10); type: cell-based, K. pneumoniae; details: Klebsiella pneumoniae
Description: as §1

[6] = system: mammalian species; details: mammalian species (PDR 1998); cited from earlier work
[7] = system: Gram-negative isolates; assay: MIC testing by broth microdilution, summary (Example 4); type: cell-based; details: range over organisms
Experimental: (§2) The Gram-positive organisms tested were S. epidermidis, methicillin resistant S. epidermidis (MRSE), S. aureus, methicillin resistant S. aureus (MRSA), E. faecalis and vancomycin resistant E. faecalis, the Gram-negative organisms tested were P. aeruginosa, E. coli and K. pneumoniae .
(§3) For MIC testing, all isolates were tested against 5-FU by broth microdilution following CLSI methodology (M7-A7).

[8] = system: Gram-positive organisms; assay: as above; type: cell-based; details: range over organisms
Experimental: as §2, §3

[9] = system: K. pneumoniae; assay: Broth microdilution MIC and MBC (Example 9); type: cell-based
Experimental: (§4) Minimal bactericidal concentrations (MBCs) were determined for bacterial isolates associated with catheter-related infections (Attachment 18.18). Broth microdilution MBCs were determined by first performing the standard broth microdilution technique to establish the 5-FU MIC for each organism (CLSI M7-A7). […] were sampled to determine the MBC as defined as the concentration at which a ≧99.9% reduction in the colony forming units relative to the starting inoculum concentration was achieved. When the MBC:MIC ratio for 5-FU was […].

[10] = system: E. faecalis; assay: Broth microdilution MIC and MBC (Example 9); type: cell-based
Experimental: as §4

[11] = system: S. aureus; assay: Broth microdilution MIC and MBC (Example 9); type: cell-based
Experimental: as §4

[12] = system: S. epidermidis; assay: Broth microdilution MIC and MBC (Example 9); type: cell-based
Experimental: as §4

[13] = system: P. aeruginosa; assay: Broth microdilution MIC and MBC (Example 9); type: cell-based
Experimental: as §4

[14] = system: E. coli; assay: Broth microdilution MIC and MBC (Example 9); type: cell-based
Experimental: as §4

[15] = system: S. epidermidis and S. aureus
Description: Microbial resistance is a concern associated with repeated exposure to anti-microbial agents.

[16] = system: K. pneumoniae; assay: MIC testing by broth microdilution, clinical isolates (Example 4); type: cell-based; details: Klebsiella pneumoniae, N=104
Experimental: as §2, §3

[17] = system: E. faecalis; assay: as above; type: cell-based
Experimental: as §2, §3

[18] = system: S. aureus; assay: as above; type: cell-based
Experimental: as §2, §3

[19] = system: S. epidermidis; assay: as above; type: cell-based
Experimental: as §2, §3

[20] = system: P. aeruginosa; assay: as above; type: cell-based; details: Pseudomonas aeruginosa, N=100
Experimental: as §2, §3

[21] = system: E. coli; assay: as above; type: cell-based; details: Escherichia coli, N=102
Experimental: as §2, §3

[22] = IV, cited from earlier work
[23] = system: S. aureus; assay: Multi-organism zone-of-inhibition screening (Example 15); type: cell-based; details: 24 hr, one sample per plate, antibiotic disks 6 mm (Gentamicin 10 μg, penicillin 10 units)
Experimental: (§5) The 5-FU CVC was compared with the commercially available Arrow CVC. Gentamicin (10 μg) or penicillin (10 units) disks were used as positive controls and CVC was used as the negative control. The samples were challenged with 3 species of Gram-positive bacteria, 4 species of Gram-negative bacteria and 1 type of yeast. The organisms used to challenge the samples were the following ATCC strains: S. aureus, Methicillin Resistant Staphylococcus aureus (MRSA), S. epidermidis, K. pneumoniae, and Vancomycin Resistant Pediococcus (VRP), E. coli, P. aeruginosa and C. albicans.
(§6) Organisms were inoculated into 2 mL of liquid agar, which was poured on top of solidified agar. One plate was made per organism. Test articles were inserted into the agar when the plates were solidified and dry. ZOI results were recorded at 24 hr. […] Each plate also contained one negative and one positive control sample and 1 Arrow CVC sample.

[24] = system: S. epidermidis; assay: as above; type: cell-based; details: 24 hr, one sample per plate, antibiotic disks 6 mm (Gentamicin 10 μg, penicillin 10 units)
Experimental: as §5, §6

[25] = system: Vancomycin Resistant Pediococcus (VRP); assay: as above; type: cell-based; details: 24 hr, one sample per plate, antibiotic disks 6 mm (Gentamicin 10 μg, penicillin 10 units)
Experimental: as §5, §6

[26] = system: C. albicans; assay: as above; type: cell-based; details: 24 hr, one sample per plate, antibiotic disks 6 mm (Gentamicin 10 μg, penicillin 10 units)
Experimental: as §5
Organisms were inoculated into 2 mL of liquid agar, which was poured on top of solidified agar. One plate was made per organism. Test articles were inserted into the agar when the plates were solidified and dry. ZOI results were recorded at 24 hr. Three 0.5-cm sections of the 5-FU CVC were tested on each plate. Each plate also contained one negative and one positive control sample and 1 Arrow CVC sample.

[27] = Enterococcus faecalis, all, N=101, read-out: MIC90
[28] = Staphylococcus aureus, Oxacillin-R, N=40
[29] = Staphylococcus aureus, Oxacillin-S, N=61
[30] = Staphylococcus aureus, all, N=101
[31] = Staphylococcus epidermidis, Oxacillin-R, N=78
[32] = Staphylococcus epidermidis, Oxacillin-S, N=22
[33] = Staphylococcus epidermidis, all, N=100

Molecule: O=c1[nH]cc(F)c(=O)[nH]1 [5-FU, 5-fluorouracil]
- MBC ([1]; ATCC25923, read-out: MBC): 1.23 µg/mL (≈ 9.46 µM)
- MIC ([1]; ATCC25923, read-out: MIC): 1.23 µg/mL (≈ 9.46 µM)
- MBC ([2]; ATCC27853, read-out: MBC): > 100 µg/mL
- MIC ([2]; ATCC27853, read-out: MIC): > 100 µg/mL
- MBC ([3]; ATCC12228, read-out: MBC): 0.41 µg/mL (≈ 3.15 µM)
- MIC ([3]; ATCC12228, read-out: MIC): 0.14 µg/mL (≈ 1.08 µM)
- MBC ([4]; ATCC29212, read-out: MBC): 3.7 µg/mL (≈ 28.4 µM)
- MIC ([4]; ATCC29212, read-out: MIC): 3.7 µg/mL (≈ 28.4 µM)
- MBC ([5]; ATCC700603, read-out: MBC): > 100 µg/mL
- MIC ([5]; ATCC700603, read-out: MIC): 100 µg/mL (≈ 769 µM)
- LD50 [6]: 94 to 880 mg/kg
- MIC50 [7]: 16 to 128 µg/mL (≈ 123 to 984 µM)
- MIC50 [8]: 0.015 to 0.12 µg/mL (≈ 0.115 to 0.923 µM)
- MBC ([9]; Klebsiella pneumoniae, ≧99.9% reduction in CFU, read-out: MBC (all strains)): > 512 µg/mL
- bactericidal activity ([9]; by MBC:MIC ratio): no bactericidal activity
- MIC range ([10]; 10 strains): 8 to 120 ng/mL
- bactericidal, number of strains ([10]; by MBC:MIC ratio): 8 of the 10
- MBC range ([10]; ≧99.9% reduction in CFU): 8 to 250 ng/mL
- MIC range ([11]; S. aureus, 11 strains): 0.03 to 0.25 µg/mL
- bactericidal, number of strains ([11]; S. aureus, by MBC:MIC ratio): 4 of the 11
- MBC range ([11]; S. aureus, ≧99.9% reduction in CFU): 0.12 to 32 µg/mL
- MIC ([11]; Staphylococcus aureus, methicillin resistant S. aureus, N=5, read-out: averaged MIC): 0.12 µg/mL (≈ 0.923 µM)
- MIC range ([12]; S. epidermidis, 10 strains): 0.03 to 0.25 µg/mL
- bactericidal, number of strains ([12]; S. epidermidis, by MBC:MIC ratio): 6 of the 11
- MBC range ([12]; S. epidermidis, ≧99.9% reduction in CFU): 0.03 to 0.25 µg/mL
- MIC ([12]; Staphylococcus epidermidis, methicillin resistant S. epidermidis, N=8, read-out: averaged MIC): 0.08 µg/mL (≈ 0.615 µM)
- MBC ([13]; Pseudomonas aeruginosa, ≧99.9% reduction in CFU, read-out: MBC (all strains)): > 512 µg/mL
- bactericidal activity ([13]; by MBC:MIC ratio): no bactericidal activity
- MIC range ([14]; 10 strains): 0.25 to 64 µg/mL
- bactericidal, number of strains ([14]; by MBC:MIC ratio): 1 of the 10
- Historical 5-FU MIC values [15]: 0.06 to 0.12 µg/mL
- MIC50 [16]: 128 µg/mL (≈ 984 µM)
- MIC90 [16]: > 512 µg/mL
- MIC50 ([17]; Enterococcus faecalis, all, N=101, read-out: MIC50): 0.015 µg/mL (≈ 0.115 µM)
- MIC90 [17, 27]: 0.06 µg/mL (≈ 0.461 µM)
- MIC50 ([17]; Vancomycin-R, N=21): 0.015 µg/mL (≈ 0.115 µM)
- MIC90 ([17]; Vancomycin-R, N=21): 0.06 µg/mL (≈ 0.461 µM)
- MIC50 ([17]; Vancomycin-S, N=80): 0.015 µg/mL (≈ 0.115 µM)
- MIC90 ([17]; Vancomycin-S, N=80): 0.06 µg/mL (≈ 0.461 µM)
- MIC50 ([18]; Oxacillin-R, N=40): 0.12 µg/mL (≈ 0.923 µM)
- MIC50 ([18]; Oxacillin-S, N=61): 0.12 µg/mL (≈ 0.923 µM)
- MIC90 [18, 28]: 0.12 µg/mL (≈ 0.923 µM)
- MIC90 [18, 29]: 0.25 µg/mL (≈ 1.92 µM)
- MIC90 [18, 30]: 0.25 µg/mL (≈ 1.92 µM)
- MIC50 ([18]; Staphylococcus aureus, all, N=101, read-out: MIC50): 0.12 µg/mL (≈ 0.923 µM)
- MIC50 ([19]; Oxacillin-R, N=78): 0.06 µg/mL (≈ 0.461 µM)
- MIC50 ([19]; Oxacillin-S, N=22): 0.06 µg/mL (≈ 0.461 µM)
- MIC90 [19, 31]: 0.5 µg/mL (≈ 3.84 µM)
- MIC90 [19, 32]: 0.12 µg/mL (≈ 0.923 µM)
- MIC90 [19, 33]: 0.25 µg/mL (≈ 1.92 µM)
- MIC50 ([19]; Staphylococcus epidermidis, all, N=100, read-out: MIC50): 0.06 µg/mL (≈ 0.461 µM)
- MIC50 [20]: 16 µg/mL (≈ 123 µM)
- MIC90 [20]: 64 µg/mL (≈ 492 µM)
- MIC50 [21]: 32 µg/mL (≈ 246 µM)
- MIC90 [21]: 64 µg/mL (≈ 492 µM)
- plasma levels ([22]; continuous infusion): about 10 μM
- plasma concentrations ([22]; rapid infusion): 0.1-1.0 mM and 13-130 μg/ml

Molecule: Penicillin
- ZOI [23]: 41.3 mm
- ZOI [24]: 0 mm
- ZOI [25]: 0 mm
- ZOI [26]: 0 mm

Molecule: C[C@H]1COc2c(N3CCN(C)CC3)c(F)cc3c(=O)c(C(=O)O)cn1c23 [Levofloxacin]
- MIC90 [16]: 0.12 µg/mL (≈ 0.332 µM)
- MIC90 [17, 27]: 64 µg/mL (≈ 177 µM)
- MIC90 ([17]; Vancomycin-R, N=21): 64 µg/mL (≈ 177 µM)
- MIC90 ([17]; Vancomycin-S, N=80): 64 µg/mL (≈ 177 µM)
- MIC90 [18, 28]: 32 µg/mL (≈ 88.6 µM)
- MIC90 [18, 29]: 16 µg/mL (≈ 44.3 µM)
- MIC90 [18, 30]: 32 µg/mL (≈ 88.6 µM)
- MIC90 [19, 31]: > 128 µg/mL
- MIC90 [19, 32]: 128 µg/mL (≈ 354 µM)
- MIC90 [19, 33]: > 128 µg/mL
- MIC90 [20]: 32 µg/mL (≈ 88.6 µM)
- MIC90 [21]: 16 µg/mL (≈ 44.3 µM)
